# Activity calls are given as the source filed them. The calls are words filed in the database; no cut-off is given here.
# Assays:
# [1] = molecular target: Cyclin-dependent kinase 9 (Homo sapiens) (UniProt P50750); test: Inhibition of CDK9 in human Osimertinib-resistant NCI-H1975 cell assessed as suppression of p-RNAP II phosphorylation at Ser2 residue incubated for 8 hrs by Western blot analysis; assay type: cell-based; conditions: dose 0.05-1 µM
# [2] = system: NCI-H1975; test: Inhibition of colony formation in human Osimertinib-resistant NCI-H1975 cell assessed as inhibition of cell growth at 125 to 2000 nM measured after 2 weeks by crystal violet staining based analysis; assay type: functional; conditions: dose 125-2000 nM
# [3] = Metabolic stability in human liver microsomes assessed as half life at 10 uM measured at 5 to 60 mins by LC-MS/MS analysis; assay type: ADME, Microsome; conditions: time 5-60 min
# [4] = Antitumor activity against patient derived #2566 lung cancer organoid assessed as inhibition of growth measured after 4 days; assay type: functional, tissue-based; conditions: Homo sapiens, 96 h
# [5] = Inhibition of colony formation in human Osimertinib-resistant NCI-H1975 cell assessed as inhibition of cell growth at 125 nM measured after 2 weeks by crystal violet staining based analysis relative to control; assay type: functional; conditions: NCI-H1975, 336 h
# [6] = Antitumor activity against patient derived #2862 lung cancer organoid assessed as inhibition of growth measured after 4 days; assay type: functional, tissue-based; conditions: Homo sapiens, 96 h
# [7] = Induction of apoptosis in human Osimertinib-resistant NCI-H1975 cell assessed as necrotic cells at 125 nM measured after 16 hrs in presence of osimertinib by Annexin V-FITC and PI staining based analysis (reference value: 0.50%); assay type: functional
# [8] = cells; conditions: Homo sapiens, Osimertinib-resistant HCC827AR cell, 72 h
# [9] = AUC in Sprague-Dawley rat at 2 mg/kg, iv measured upto 24 hrs; assay type: ADME, organism-based; parameters: dose 2 mg/kg, time < 24 hrs, route iv; conditions: in vivo
# [10] = molecular target: Cyclin-dependent kinase 5/CDK5 activator 1 (Homo sapiens) (UniProt Q00535+Q15078); test: Inhibition of CDK5/p35NCK (unknown origin) at 200 nM preincubated for 10 mins followed by substrate addition and measured after 60 mins in presence of ATP by ADP-Glo reagent based assay relative to control; assay type: protein-complex assay; conditions: time 70.0 min
# Cyclin-dependent kinase 5/CDK5 activator 1 (Homo sapiens), sequence (Q00535 whole entry): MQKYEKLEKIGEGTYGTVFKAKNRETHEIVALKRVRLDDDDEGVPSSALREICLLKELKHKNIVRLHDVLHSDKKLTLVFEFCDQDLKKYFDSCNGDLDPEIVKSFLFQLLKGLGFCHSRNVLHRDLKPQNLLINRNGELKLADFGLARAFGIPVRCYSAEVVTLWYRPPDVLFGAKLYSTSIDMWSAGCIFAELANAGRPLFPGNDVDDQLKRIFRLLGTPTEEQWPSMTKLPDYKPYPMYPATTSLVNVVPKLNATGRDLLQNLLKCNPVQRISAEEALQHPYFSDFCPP
# Cyclin-dependent kinase 5/CDK5 activator 1 (Homo sapiens), sequence (Q15078 99-307 partner limits assumed): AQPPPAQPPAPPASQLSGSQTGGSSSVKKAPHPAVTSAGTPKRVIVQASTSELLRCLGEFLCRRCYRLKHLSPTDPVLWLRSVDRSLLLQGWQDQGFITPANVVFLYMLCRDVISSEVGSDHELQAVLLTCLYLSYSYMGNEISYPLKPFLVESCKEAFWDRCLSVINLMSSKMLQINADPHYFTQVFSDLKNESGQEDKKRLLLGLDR
# [11] = system: NCI-H1975; test: Downregulation of Bcl-2 level in human Osimertinib-resistant NCI-H1975 cell measured after 16 hrs by Western blot analysis; assay type: functional, cell-based; conditions: dose 125-2000 nM
# [12] = Apparent volume of distribution in Sprague-Dawley rat at 2 mg/kg, iv measured upto 24 hrs; assay type: ADME, organism-based; conditions: in vivo, read-out: Vz
# [13] = molecular target: Glycogen synthase kinase-3 beta (Homo sapiens) (UniProt P49841); test: Inhibition of GSK3beta (unknown origin) at 500 nM preincubated for 10 mins followed by substrate addition and measured after 60 mins in presence of ATP by ADP-Glo reagent based assay relative to control; conditions: time 70.0 min
# Glycogen synthase kinase-3 beta (Homo sapiens), sequence (P49841 whole entry, looked up): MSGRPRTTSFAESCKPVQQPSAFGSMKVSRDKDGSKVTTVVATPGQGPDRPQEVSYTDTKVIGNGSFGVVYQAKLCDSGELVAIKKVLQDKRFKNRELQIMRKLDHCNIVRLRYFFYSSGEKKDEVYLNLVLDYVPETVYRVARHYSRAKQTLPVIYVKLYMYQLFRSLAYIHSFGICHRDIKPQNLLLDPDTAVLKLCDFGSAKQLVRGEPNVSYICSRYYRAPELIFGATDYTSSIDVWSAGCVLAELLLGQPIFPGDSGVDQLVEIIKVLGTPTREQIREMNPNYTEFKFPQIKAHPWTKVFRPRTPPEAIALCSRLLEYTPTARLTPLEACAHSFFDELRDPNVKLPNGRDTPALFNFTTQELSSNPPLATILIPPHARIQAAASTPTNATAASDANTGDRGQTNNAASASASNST
# [14] = Toxicity in ICR mouse assessed as abnormalities in lung at 1000 mg/kg, po measured after 9 days by H and E staining based analysis; assay type: organism-based; conditions: in vivo, 216 h, time 9 day
# [15] = molecular target: Dual specificity tyrosine-phosphorylation-regulated kinase 1A (Homo sapiens) (UniProt Q13627); test: Inhibition of DYRK1A (unknown origin) at 100 nM preincubated for 10 mins followed by substrate addition and measured after 60 mins in presence of ATP by ADP-Glo reagent based assay relative to control; conditions: time 70.0 min
# [16] = molecular target: CDK6/cyclin D1 (Homo sapiens) (UniProt P24385+Q00534); test: Inhibition of CDK6/cyclin D1 (unknown origin) at 200 nM preincubated for 10 mins followed by substrate addition and measured after 60 mins in presence of ATP by ADP-Glo reagent based assay relative to control; assay type: protein-complex assay; conditions: time 70.0 min
# [17] = Induction of apoptosis in human Osimertinib-resistant NCI-H1975 cell assessed as necrotic cells at 500 nM measured after 16 hrs by Annexin V-FITC and PI staining based analysis (reference value: 0.50%); assay type: functional
# [18] = system: NCI-H1975; test: Downregulation of cleaved PARP level in human Osimertinib-resistant NCI-H1975 cell measured after 16 hrs by Western blot analysis; assay type: functional, cell-based; conditions: dose 125-2000 nM
# [19] = system: NCI-H1975; test: Downregulation of Bcl-2 level in human Osimertinib-resistant NCI-H1975 cell at 125 nM measured after 16 hrs in presence of osimertinib by Western blot analysis; assay type: functional, cell-based
# [20] = Induction of apoptosis in human Osimertinib-resistant NCI-H1975 cell assessed as viable cells at 2000 nM measured after 16 hrs by Annexin V-FITC and PI staining based analysis (reference value: 94.9%); assay type: functional; conditions: read-out: Activity
# [21] = Solubility of the compound in water at pH 7.4 by shake flask method; assay type: physicochemical
# [22] = molecular target: CDK9/cyclin T1 (Homo sapiens) (UniProt O60563+P50750); test: Inhibition of CDK9/cyclin T1 (unknown origin) at 200 nM preincubated for 10 mins followed by substrate addition and measured after 60 mins in presence of ATP by ADP-Glo reagent based assay relative to control; assay type: protein-complex assay; conditions: time 70.0 min
# [23] = system: Epidermal growth factor receptor (Homo sapiens), P00533 [L858R,T790M,C797S]; test: Inhibition of EGFR T790M/C797S/L858R triple mutant (unknown origin) at 2500 nM preincubated for 10 mins followed by substrate addition and measured after 60 mins in presence of ATP by ADP-Glo reagent based assay relative to control; conditions: time 70.0 min
# Epidermal growth factor receptor (Homo sapiens), P00533 [L858R,T790M,C797S], sequence (P00533 whole entry T790M/C797S/L858R): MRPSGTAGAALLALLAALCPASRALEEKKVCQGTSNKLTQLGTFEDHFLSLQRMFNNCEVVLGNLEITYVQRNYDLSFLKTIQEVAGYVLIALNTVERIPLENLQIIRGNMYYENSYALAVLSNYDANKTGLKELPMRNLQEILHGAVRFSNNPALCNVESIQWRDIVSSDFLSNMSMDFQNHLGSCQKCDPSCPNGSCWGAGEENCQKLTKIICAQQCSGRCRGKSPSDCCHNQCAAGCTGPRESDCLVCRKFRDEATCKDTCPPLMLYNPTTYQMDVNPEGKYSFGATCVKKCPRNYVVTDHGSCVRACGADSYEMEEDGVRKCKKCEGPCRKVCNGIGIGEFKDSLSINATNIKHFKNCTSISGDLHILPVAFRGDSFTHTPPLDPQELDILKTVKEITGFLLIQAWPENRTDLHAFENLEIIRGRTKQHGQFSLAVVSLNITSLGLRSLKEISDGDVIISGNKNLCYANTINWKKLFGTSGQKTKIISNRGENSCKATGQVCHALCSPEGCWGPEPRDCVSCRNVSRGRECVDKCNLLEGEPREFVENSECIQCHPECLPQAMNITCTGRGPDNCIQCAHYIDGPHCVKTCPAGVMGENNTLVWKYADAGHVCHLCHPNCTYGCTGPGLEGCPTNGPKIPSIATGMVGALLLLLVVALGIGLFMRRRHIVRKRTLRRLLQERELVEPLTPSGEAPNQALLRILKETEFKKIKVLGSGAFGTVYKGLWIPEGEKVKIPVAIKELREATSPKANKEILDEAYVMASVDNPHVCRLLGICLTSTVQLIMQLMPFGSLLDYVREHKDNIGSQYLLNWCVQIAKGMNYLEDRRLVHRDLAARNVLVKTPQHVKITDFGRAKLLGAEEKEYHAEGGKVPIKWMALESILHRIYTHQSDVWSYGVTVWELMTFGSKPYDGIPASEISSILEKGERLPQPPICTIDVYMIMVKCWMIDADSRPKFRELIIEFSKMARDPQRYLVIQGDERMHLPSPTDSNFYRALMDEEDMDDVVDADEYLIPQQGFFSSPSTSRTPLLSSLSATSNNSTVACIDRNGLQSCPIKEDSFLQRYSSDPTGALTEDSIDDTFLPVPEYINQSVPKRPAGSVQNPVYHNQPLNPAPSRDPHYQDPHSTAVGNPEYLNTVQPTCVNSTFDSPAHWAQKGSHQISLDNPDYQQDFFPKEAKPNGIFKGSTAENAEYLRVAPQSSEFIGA
# [24] = molecular target: CDK6/cyclin D3 (Homo sapiens) (UniProt P30281+Q00534); test: Inhibition of CDK6/cyclin D3 (unknown origin) at 200 nM preincubated for 10 mins followed by substrate addition and measured after 60 mins in presence of ATP by ADP-Glo reagent based assay relative to control; assay type: protein-complex assay; conditions: time 70.0 min
# [25] = system: NCI-H1975; test: Inhibition of cell growth in 3D-cultured human Osimertinib-resistant NCI-H1975 cell by DAPI and PI staining based analysis; assay type: functional; conditions: dose 0.049-3.125 µM
# [26] = molecular target: CDK2/Cyclin A2 (Homo sapiens, UniProt P24941); test: Inhibition of CDK2/Cyclin A2 (unknown origin) preincubated for 10 mins followed by substrate addition and measured after 60 mins in presence of ATP by ADP-Glo reagent based assay; assay type: protein-complex assay
# [27] = system: HCC827; test: Antiproliferative activity against human HCC827 cells incubated for 72 hrs by MTT assay; assay type: functional, cell-based; conditions: HCC827, 72 h
# [28] = Toxicity in ICR mouse assessed as morphological changes in liver at 1000 mg/kg, po measured after 9 days by H and E staining based analysis; assay type: organism-based; conditions: in vivo, 216 h, time 9 day
# [29] = Induction of apoptosis in human Osimertinib-resistant NCI-H1975 cell assessed as late apoptotic cells at 125 nM measured after 16 hrs by Annexin V-FITC and PI staining based analysis (Rvb =2.84%); assay type: functional
# [30] = molecular target: BDNF/NT-3 growth factors receptor (Homo sapiens) (UniProt Q16620); test: Inhibition of TRKB (unknown origin) at 500 nM preincubated for 10 mins followed by substrate addition and measured after 60 mins in presence of ATP by ADP-Glo reagent based assay relative to control; conditions: time 70.0 min
# BDNF/NT-3 growth factors receptor (Homo sapiens), sequence (Q16620 32-822 limits assumed): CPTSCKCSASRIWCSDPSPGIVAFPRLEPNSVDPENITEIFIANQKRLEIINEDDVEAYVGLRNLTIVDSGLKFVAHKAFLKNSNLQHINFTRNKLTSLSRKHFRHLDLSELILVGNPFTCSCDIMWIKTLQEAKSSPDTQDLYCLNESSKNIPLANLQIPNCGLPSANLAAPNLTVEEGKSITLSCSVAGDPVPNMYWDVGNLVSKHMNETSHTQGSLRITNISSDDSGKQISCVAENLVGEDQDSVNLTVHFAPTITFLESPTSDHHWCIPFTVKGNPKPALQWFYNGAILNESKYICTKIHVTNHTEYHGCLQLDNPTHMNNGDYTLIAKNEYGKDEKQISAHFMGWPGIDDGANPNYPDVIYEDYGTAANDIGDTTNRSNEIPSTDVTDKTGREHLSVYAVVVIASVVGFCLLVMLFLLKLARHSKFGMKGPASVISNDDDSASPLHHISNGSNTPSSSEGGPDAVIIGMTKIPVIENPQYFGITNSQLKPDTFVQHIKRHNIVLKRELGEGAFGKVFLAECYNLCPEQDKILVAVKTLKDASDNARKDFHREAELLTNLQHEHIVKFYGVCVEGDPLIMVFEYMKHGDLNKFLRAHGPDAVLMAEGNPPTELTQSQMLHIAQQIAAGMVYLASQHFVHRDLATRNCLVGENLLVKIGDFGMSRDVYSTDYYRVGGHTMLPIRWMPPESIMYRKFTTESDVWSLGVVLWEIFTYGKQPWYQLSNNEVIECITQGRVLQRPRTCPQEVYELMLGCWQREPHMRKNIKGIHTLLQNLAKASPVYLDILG
# [31] = Downregulation of Mcl-1 in human NCI-H1975 cells at 500 nM relative to control; assay type: functional
# Cyclin-dependent kinase 9 (Homo sapiens), sequence (P50750 whole entry): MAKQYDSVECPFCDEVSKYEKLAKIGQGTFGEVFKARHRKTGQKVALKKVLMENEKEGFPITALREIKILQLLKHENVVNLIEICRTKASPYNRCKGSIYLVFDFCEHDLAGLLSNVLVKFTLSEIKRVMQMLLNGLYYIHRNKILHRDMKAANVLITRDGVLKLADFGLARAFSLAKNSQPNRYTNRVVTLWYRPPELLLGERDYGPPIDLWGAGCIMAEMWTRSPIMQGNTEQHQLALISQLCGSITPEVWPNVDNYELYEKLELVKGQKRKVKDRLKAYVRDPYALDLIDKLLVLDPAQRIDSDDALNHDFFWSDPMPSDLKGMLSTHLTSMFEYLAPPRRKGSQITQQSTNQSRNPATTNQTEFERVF
smiles,measurement,setting,value
O=C(NCCN1CCOCC1)c1ccc2cc1OCCCCCCOc1cc(ccc1F)-c1nc(ncc1F)N2,inhibition,[1],Dose-Dependent Effect
same,inhibition,[2],Active
same,half-life at 10 µM,[3],10.7 min
same,IC50,[4],< 0.02 µM
same,inhibition at 0.125 µM,[5],100%
same,IC50,[6],0.94 µM
same,Activity,[7],0.27%
same,IC50,[8],0.251 µM
same,AUC at 24 h,[9],1080 ng·h/mL
same,inhibition,[10],16.3%
same,Activity,[11],Dose-Dependent Effect
same,Vd,[12],12 L/kg
same,inhibition,[13],93.9%
same,Activity,[14],Non-Toxic
same,inhibition,[15],14.3%
same,inhibition,[16],29.3%
same,Activity,[17],2.92%
same,Activity,[18],Dose-Dependent Effect
same,Activity,[19],Active
same,viability at 2 µM,[20],65.5%
same,solubility thermodynamic,[21],626 µg/mL
same,inhibition,[22],99.3%
same,inhibition,[23],33.3%
same,inhibition,[24],11.6%
same,inhibition,[25],Dose-Dependent Effect
same,IC50,[26],0.209 µM
same,IC50,[27],0.315 µM
same,Activity,[28],Non-Toxic
same,Activity,[29],3.15%
same,inhibition,[30],80.7%
same,Activity,[31],75.6%
